In the NIST ThermoML archive (doi:10.1021/je8004112):
Numbers after ± are expanded uncertainties.

Key:
[1] = xn = mol fraction of the nth substance listed; conditions: Ring tensiometer
[2] = Ring tensiometer

CCCCCCC [heptane] + OC1CCCCC1
[1], x1 = 1
Conditions | surface tension liquid-gas [mN/m]
293.15 K | 20.05 ± 0.33
298.15 K | 19.54 ± 0.32
303.15 K | 19.1 ± 0.32
308.15 K | 18.58 ± 0.31
313.15 K | 18.08 ± 0.3
318.15 K | 17.6 ± 0.3
323.15 K | 17.06 ± 0.29

CCCCCCCCCCCC [dodecane] + OC1CCCCC1
[1], x1 = 1
Conditions | surface tension liquid-gas [mN/m]
293.15 K | 24.28 ± 0.38
298.15 K | 23.84 ± 0.38
303.15 K | 23.38 ± 0.37
308.15 K | 22.98 ± 0.36
313.15 K | 22.56 ± 0.36
318.15 K | 22.14 ± 0.35
323.15 K | 21.71 ± 0.35

OC1CCCCC1 [cyclohexanol]
[2]
Conditions | surface tension liquid-gas [mN/m]
293.15 K | 33.15 ± 0.49
298.15 K | 32.74 ± 0.49
303.15 K | 32.35 ± 0.48
308.15 K | 31.91 ± 0.48
313.15 K | 31.58 ± 0.47
318.15 K | 31.13 ± 0.47
323.15 K | 30.78 ± 0.46

C1CCCCC1 [cyclohexane]
[2]
Conditions | surface tension liquid-gas [mN/m]
293.15 K | 25.06 ± 0.39
298.15 K | 24.45 ± 0.38
303.15 K | 23.87 ± 0.38
308.15 K | 23.21 ± 0.37
313.15 K | 22.71 ± 0.36
318.15 K | 22.05 ± 0.36
323.15 K | 21.45 ± 0.35

OC1CCCCC1 [cyclohexanol] + C1CCCCC1
surface tension liquid-gas [mN/m], [1]
Conditions | x2 = 0 | x2 = 0.005 | x2 = 0.009 | x2 = 0.013 | x2 = 0.023 | x2 = 0.031 | x2 = 0.044 | x2 = 0.07
293.15 K | 33.15 ± 0.49 | 31.44 ± 0.69 | 30.93 ± 0.5 | 30.73 ± 0.47 | 30.42 ± 0.46 | 30.26 ± 0.46 | 30.12 ± 0.46 | 29.62 ± 0.45
298.15 K | 32.74 ± 0.49 | 31 ± 0.69 | 30.54 ± 0.49 | 30.32 ± 0.46 | 29.99 ± 0.46 | 29.8 ± 0.45 | 29.62 ± 0.45 | 29.15 ± 0.44
303.15 K | 32.35 ± 0.48 | 30.55 ± 0.68 | 30.17 ± 0.48 | 29.88 ± 0.46 | 29.57 ± 0.45 | 29.38 ± 0.45 | 29.16 ± 0.44 | 28.65 ± 0.44
308.15 K | 31.91 ± 0.48 | 30.12 ± 0.67 | 29.77 ± 0.48 | 29.49 ± 0.45 | 29.15 ± 0.45 | 28.93 ± 0.44 | 28.65 ± 0.44 | 28.18 ± 0.43
313.15 K | 31.58 ± 0.47 | 29.73 ± 0.68 | 29.4 ± 0.48 | 29.06 ± 0.45 | 28.76 ± 0.44 | 28.48 ± 0.44 | 28.26 ± 0.43 | 27.75 ± 0.43
318.15 K | 31.13 ± 0.47 | 29.26 ± 0.66 | 29 ± 0.46 | 28.67 ± 0.44 | 28.34 ± 0.44 | 28.07 ± 0.43 | 27.78 ± 0.43 | 27.27 ± 0.42
323.15 K | 30.78 ± 0.46 | 28.88 ± 0.66 | 28.63 ± 0.46 | 28.3 ± 0.44 | 27.91 ± 0.43 | 27.66 ± 0.43 | 27.35 ± 0.42 | 26.82 ± 0.42

OC1CCCCC1 [cyclohexanol] + CCCCCCCCC
surface tension liquid-gas [mN/m], [1]
Conditions | x2 = 0 | x2 = 0.003 | x2 = 0.006 | x2 = 0.008 | x2 = 0.012 | x2 = 0.022 | x2 = 0.041 | x2 = 0.06
293.15 K | 33.15 ± 0.49 | 32.91 ± 0.51 | 32.7 ± 0.51 | 32.65 ± 0.51 | 32.24 ± 0.5 | 31.79 ± 0.49 | 30.67 ± 0.47 | 29.88 ± 0.46
298.15 K | 32.74 ± 0.49 | 32.51 ± 0.51 | 32.3 ± 0.5 | 32.22 ± 0.5 | 31.85 ± 0.49 | 31.44 ± 0.48 | 30.3 ± 0.47 | 29.48 ± 0.45
303.15 K | 32.35 ± 0.48 | 32.11 ± 0.51 | 31.84 ± 0.49 | 31.78 ± 0.49 | 31.49 ± 0.48 | 31.09 ± 0.48 | 29.91 ± 0.46 | 29.11 ± 0.45
308.15 K | 31.91 ± 0.48 | 31.72 ± 0.5 | 31.44 ± 0.49 | 31.35 ± 0.49 | 31.09 ± 0.47 | 30.72 ± 0.48 | 29.52 ± 0.46 | 28.72 ± 0.44
313.15 K | 31.58 ± 0.47 | 31.36 ± 0.5 | 31.08 ± 0.48 | 30.94 ± 0.48 | 30.75 ± 0.47 | 30.38 ± 0.47 | 29.17 ± 0.45 | 28.37 ± 0.44
318.15 K | 31.13 ± 0.47 | 30.99 ± 0.49 | 30.69 ± 0.48 | 30.52 ± 0.48 | 30.41 ± 0.46 | 29.99 ± 0.47 | 28.8 ± 0.45 | 27.98 ± 0.44
323.15 K | 30.78 ± 0.46 | 30.54 ± 0.49 | 30.3 ± 0.47 | 30.07 ± 0.47 | 30.02 ± 0.46 | 29.62 ± 0.46 | 28.41 ± 0.45 | 27.56 ± 0.43

OC1CCCCC1 [cyclohexanol] + CCCCCCC
surface tension liquid-gas [mN/m], [1]
Conditions | x2 = 0 | x2 = 0.011 | x2 = 0.014 | x2 = 0.02 | x2 = 0.025 | x2 = 0.033 | x2 = 0.037 | x2 = 0.061
293.15 K | 33.15 ± 0.49 | 32.84 ± 0.49 | 32.69 ± 0.49 | 32.56 ± 0.51 | 31.8 ± 0.5 | 31.53 ± 0.48 | 31.38 ± 0.48 | 29.87 ± 0.47
298.15 K | 32.74 ± 0.49 | 32.47 ± 0.49 | 32.29 ± 0.48 | 32.2 ± 0.5 | 31.48 ± 0.49 | 31.17 ± 0.47 | 31.01 ± 0.47 | 29.54 ± 0.46
303.15 K | 32.35 ± 0.48 | 32.11 ± 0.48 | 31.92 ± 0.48 | 31.8 ± 0.5 | 31.08 ± 0.49 | 30.82 ± 0.47 | 30.56 ± 0.48 | 29.2 ± 0.46
308.15 K | 31.91 ± 0.48 | 31.78 ± 0.48 | 31.55 ± 0.48 | 31.39 ± 0.49 | 30.74 ± 0.48 | 30.44 ± 0.47 | 30.14 ± 0.48 | 28.83 ± 0.45
313.15 K | 31.58 ± 0.47 | 31.43 ± 0.47 | 31.23 ± 0.48 | 31.01 ± 0.49 | 30.41 ± 0.48 | 30.1 ± 0.46 | 29.77 ± 0.48 | 28.54 ± 0.45
318.15 K | 31.13 ± 0.47 | 31.07 ± 0.47 | 30.85 ± 0.48 | 30.57 ± 0.48 | 30.07 ± 0.47 | 29.76 ± 0.46 | 29.39 ± 0.48 | 28.23 ± 0.44
323.15 K | 30.78 ± 0.46 | 30.7 ± 0.46 | 30.45 ± 0.47 | 30.16 ± 0.48 | 29.7 ± 0.46 | 29.43 ± 0.46 | 28.99 ± 0.49 | 27.87 ± 0.44
